Results taken from patent publication US12198788B2, “System for detecting an intraoral disease and determining a personalized treatment scheme and method of doing same” (priority 2017, dated 2025).

Assays:
[1] = test system: human oral biofilms (dental plaque); experiment: Live bacterial cell counting (CTC staining, Cytation 5 imaging) after cannabinoid treatment of dental plaque colonies; assay type: cell-based
Procedure: This study evaluates different extracts/compounds on different types of human oral biofilms that normally are plaque-generating, further inducing light to severe periodontal diseases, as scored by DPSI (Dutch periodontic screening index).
Summary: The method includes: • a. randomized sampling of oral plaque biofilm from different consumers with 0-+4 DPSI, dental pulp extraction with chronic pulpitis; • b. cultivation of the samples in incubator with 37° C., for 1 day. The colonies underwent treatment with different types of compounds CBC, CBD, CBG, CBGA, CBN for 5 minutes; • c. staining with fluorescent special dyes for live bacterial cells, following the cannabinoid compounds' treatment and using one referral without cannabinoids treatment; • d. mounting on 6 channel micro slide dishes with 0.1 high; • e. imaging with Cytetion 5 Biotek microscope on 40 magnification, analyzing and running live cell counting. […]
The same procedure was employed on the second slide with the cells treated with 25% dilution of the cannabinoid of grower B. Accordingly slide 3 had the cells from grower A with 12.5% dilution and slide 4 had the cells 12.5% dilution from grower B. • d. […] Imaging modes include fluorescence, brightfield, color brightfield and phase contrast for a broad range of applications including live cell imaging, phenotypic assays, and 3D spheroids. […]

dental plaque microbes = experiment: Culture of dental plaque microbes, streak applied to inoculum, 2 days incubation (FIG. 5); assay type: cell-based; conditions: 2 days of incubation
[2] = test system: dental pulp tissue (dental pulp extraction with chronic pulpitis); experiment: Live bacterial cell counting after cannabinoid treatment, dental pulp tissue; assay type: cell-based, human
Procedure: Summary: The method includes: • a. randomized sampling of oral plaque biofilm from different consumers with 0-+4 DPSI, dental pulp extraction with chronic pulpitis; • b. cultivation of the samples in incubator with 37° C., for 1 day. The colonies underwent treatment with different types of compounds CBC, CBD, CBG, CBGA, CBN for 5 minutes; • c. staining with fluorescent special dyes for live bacterial cells, following the cannabinoid compounds' treatment and using one referral without cannabinoids treatment; • d. mounting on 6 channel micro slide dishes with 0.1 high; • e. imaging with Cytetion 5 Biotek microscope on 40 magnification, analyzing and running live cell counting.
Experimental methods: FIG. 6 depicts the steps of the methodology used in this protocol. The methodology includes the following steps: • a. Sample cultivation: Samples are collected with Flexi Grip 1702 Paro interdental brush. Cultivation on AGAR Petri Dish 100/15 mm incubated for 24 hours in 37° C. • b. Compound Treatment: The colonies are treated with 25%, 12.5% dilutions from 5 different type extracts from grower A+B. 0.5 μL compound were place in each vial, 3 colony spots were added, the mixture was agitated in centrifuge with 6-8.000 rpm for 1.5 min and suspended in 500 μL PBS. • c. Staining Mounting: Staining kit Bacstain—CTC Rapid Staining kit BS02 was used. All 5 samples and 1 referral were stained. […]

[3] = test system: dental bacteria taken from various patients (oral flora); experiment: In vitro determination of sensitivity of dental biofilm flora from individual patients to cannabinoid test panels; assay type: cell-based
Excerpt: Methods of the present invention are hereby exemplified. The trial included two stages: • a. Stage 1: In vitro determination of sensitivity of dental biofilm flora from individual patients to cannabinoid test panels. • b. Stage 2: Effectiveness of toothpaste compounded to individual patient's best cannabinoid panel formulations. Stage 1: In Vitro Determination of Sensitivity of Dental Biofilm Flora from Individual Patients to Cannabinoid Test Panels.
Ten (10) subjects (patients A-J) were involved in the trial. Dental biofilm was collected of these subjects by means of swabs, scrapes and other devices. The bacteria of this dental biofilm were characterized by conventional methods such as growth on selective media, microscopic examination and lab on-chip-laser analysis (e.g. Parochip).
Patient's bacteria from patients A-J were tested in vitro on substrates seeded with a panel of cannabinoids as illustrated in table 1 below:
Column Panels: • 1=CBDA; • 2=CBDA+CBNA; • 3=CBDA+CBNA+CBGA; • 4=CBDA+CBNA+CBGA+CBCA; • 5=CBDA+CBNA+CBGA+CBCA+CBNDA; • 6=Chlorohexadine control, and • 7=control with no antiseptic.
Results of in vitro testing are defined in terms of efficacy of panel cannabinoids in in vitro suppressing oral flora, in increasing scale of: • −, +, ++, +++, ++++, +++++

## CCCCCc1cc(O)c(C/C=C(\C)CCC=C(C)C)c(O)c1C(=O)O [CBGA, Cannabigerolic acid]
[1]; 25% dilution, grower A, FIG. 10
  most efficient compound on the plaque of the consumer: most efficient
[1]; dental plaque
  reduction from the live bacterial cells: 95%

## C=C(C)[C@@H]1CCC(C)=C[C@H]1c1c(O)cc(CCCCC)cc1O [CBD, Cannabidiol]
Dental plaque microbes
  bacterial growth at streak applied to inoculum: no bacterial growth
[2]
  reduction from the live bacterial cells: 92%

## C=C(C)[C@@H]1CCC(C)=C[C@H]1c1c(O)cc(CCCCC)c(C(=O)O)c1O [Panel 1, Cannabidiolic acid]
[3]; flora of patient B
  effectiveness against the flora (in words): effective
[3]; oral flora sample of patient A
  in vitro effectiveness of cannabinoids on dental bacteria: ++
[3]; oral flora sample of patient B
  in vitro effectiveness of cannabinoids on dental bacteria: +++++
[3]; oral flora sample of patient C
  in vitro effectiveness of cannabinoids on dental bacteria: ++++
[3]; oral flora sample of patient D
  in vitro effectiveness of cannabinoids on dental bacteria: +
[3]; oral flora sample of patient E
  in vitro effectiveness of cannabinoids on dental bacteria: +++
[3]; oral flora sample of patient F
  in vitro effectiveness of cannabinoids on dental bacteria: −
[3]; oral flora sample of patient G
  in vitro effectiveness of cannabinoids on dental bacteria: +++++
[3]; oral flora sample of patient H
  in vitro effectiveness of cannabinoids on dental bacteria: ++
[3]; oral flora sample of patient I
  in vitro effectiveness of cannabinoids on dental bacteria: −
[3]; oral flora sample of patient J
  in vitro effectiveness of cannabinoids on dental bacteria: −

## [H]/N=C(\N/C(=N/[H])NCCCCCCNC(=N)NC(=N)Nc1ccc(Cl)cc1)Nc1ccc(Cl)cc1 [Panel 6, Chlorhexidine, reference compound]
[3]; oral flora sample of patient A
  in vitro effectiveness of cannabinoids on dental bacteria: ++
[3]; oral flora sample of patient B
  in vitro effectiveness of cannabinoids on dental bacteria: ++
[3]; oral flora sample of patient C
  in vitro effectiveness of cannabinoids on dental bacteria: +
[3]; oral flora sample of patient D
  in vitro effectiveness of cannabinoids on dental bacteria: ++
[3]; oral flora sample of patient E
  in vitro effectiveness of cannabinoids on dental bacteria: −
[3]; oral flora sample of patient F
  in vitro effectiveness of cannabinoids on dental bacteria: −
[3]; oral flora sample of patient G
  in vitro effectiveness of cannabinoids on dental bacteria: +++
[3]; oral flora sample of patient H
  in vitro effectiveness of cannabinoids on dental bacteria: +
[3]; oral flora sample of patient I
  in vitro effectiveness of cannabinoids on dental bacteria: ++
[3]; oral flora sample of patient J
  in vitro effectiveness of cannabinoids on dental bacteria: −
